Laboratory results published in patent US20250171457A1, “NITROGEN-CONTAINING HETEROCYCLIC COMPOUND HAVING NRF2 ACTIVATION EFFECT” (CHUGAI SEIYAKU KABUSHIKI KAISHA, priority 2022, published 2025).
Like-named read-outs stand apart in the source and are kept apart here.

Key:
[1] = test system: Nrf2 transcriptional activity (pARE-Luc reporter) in HepG2 cells; assay: In vitro Nrf2 transcriptional activity measurement by ARE-dependent reporter assay in HepG2 cell; type: cell-based, human
In short: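 HepG2 cells transfected with pGL4.37 (pARE-Luc), replated onto compound and incubated 4 h at 37° C; luciferase read by Bright-Glo luminescence. Response normalized to 100% set by a reference compound at 3.75 μM; EC50 from dose-response curve.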

[2] = test system: Nqo1 (NAD(P)H quinone dehydrogenase 1) mRNA, Nrf2 downstream molecule; assay: In vivo Nrf2 transcriptional activity measurement (Nqo1 mRNA in organs by qPCR); conditions: Mus musculus, C57BL/6J mice, 7 to 8 hours; for fold induction at 10 mg/kg / fold induction at 15 mg/kg: ip, Intraperitoneal; for fold induction at 30 mg/kg: Oral
Experimental: Test Example 2: In Vivo Nrf2 Transcriptional Activity Measurement
A test compound (solvent: 10 vol % dimethyl sulfoxide/50 mM glycine/32 mM sodium hydroxide/physiological saline) was administered to C57BL/6J mice (7-8 weeks old), which were euthanized by whole blood collection under isoflurane anesthesia 7 to 8 hours later, followed by the collection of various organs. mRNA was purified from the collected organs, and the mRNA expression level of Mapk1 as an internal control and the mRNA expression level of Nqo1 (NAD(P)H quinone dehydrogenase 1) as a typical Nrf2 downstream molecule were each measured by qPCR. The Nqo1 mRNA expression level was quantified by comparative CT, and an expression level ratio to a non-administration group was calculated. The administration of the test compound elevated the Nqo1 mRNA expression level in the various organs, confirming that the test compound also has a Nrf2-activating effect in vivo.

[3] = Homo sapiens, HepG2 cells transfected with pARE-Luc, 4 hours at 37° C., luciferase activity of Example 1-54 or Example 17-23 at 3.75 μM defined as 100%
[4] = kidney, read-out: Nqo1 mRNA expression level ratio to non-administration group, Kidney
[5] = liver, read-out: Nqo1 mRNA expression level ratio to non-administration group, Liver
[6] = lung, read-out: Nqo1 mRNA expression level ratio to non-administration group, Lung

Q: For `COC1(OC)CN(c2cc(Cl)c(C(=O)N3COc4c(cccc4-c4cc(N5C6CCC5COC6)c(C(=O)O)cc4F)C3)c(Cl)c2)C1` [Compound 5-1, 4-[3-[2,6-Dichloro-4-(3,3-dimethoxyazetidin-1-yl)benzoyl]-2,4-dihydro-1,3-benzoxazin-8-yl]-5-fluoro-2-(3-oxa-8-azabicyclo[3.2.1]octan-8-yl)benzoic acid], which EC50 [1, 3] is on record?
A: The EC50 was 1.6 nM.

Q: And the fold induction at 10 mg/kg [2, 4]?
A: The fold induction at 10 mg/kg was 4.4.

Q: And the fold induction at 10 mg/kg [2, 5]?
A: The fold induction at 10 mg/kg was 6.8.

Q: And the fold induction at 10 mg/kg [2, 6]?
A: The fold induction at 10 mg/kg was 19.

Q: And the fold induction at 30 mg/kg [2, 4]?
A: Its fold induction at 30 mg/kg is 5.1.

Q: And the fold induction at 30 mg/kg [2, 5]?
A: The fold induction at 30 mg/kg was 3.9.

Q: And the fold induction at 30 mg/kg [2, 6]?
A: The fold induction at 30 mg/kg was 17.

Q: With `COC1CC2(C1)CN(c1cc(Cl)c(C(=O)N3COc4c(cccc4-c4cc(N5C6CCC5COC6)c(C(=O)O)cc4F)C3)c(Cl)c1)C2` [Compound 13-16, 4-[3-[2,6-Dichloro-4-(6-methoxy-2-azaspiro[3.3]heptan-2-yl)benzoyl]-2,4-dihydro-1,3-benzoxazin-8-yl]-5-fluoro-2-(3-oxa-8-azabicyclo[3.2.1]octan-8-yl)benzoic acid] as the compound, how does the EC50 ([1]; HepG2 cells, pARE-Luc reporter, 4 hours, 100% = Example 1-54 or Example 17-23 at 3.75 μM) read?
A: Its EC50 is 0.95 nM.

Q: And the fold induction at 15 mg/kg [2, 4]?
A: The fold induction at 15 mg/kg was 4.8.

Q: What about the fold induction at 15 mg/kg [2, 5] of the same compound?
A: The fold induction at 15 mg/kg was 6.6.

Q: What about the fold induction at 15 mg/kg [2, 6] of the same compound?
A: Its fold induction at 15 mg/kg is 20.

Q: And the fold induction at 30 mg/kg [2, 4]?
A: The fold induction at 30 mg/kg was 4.5.

Q: And the fold induction at 30 mg/kg [2, 5]?
A: Its fold induction at 30 mg/kg is 6.

Q: What about the fold induction at 30 mg/kg [2, 6] of the same compound?
A: Its fold induction at 30 mg/kg is 22.

Q: For `C[C@@H]1CN(c2ccc(C(=O)N3COc4c(cccc4-c4cc(N5C6CCC5COC6)c(C(=O)O)cc4F)C3)c(Cl)c2)[C@H](C)CN1C` [Compound 13-21, 4-[3-[2-Chloro-4-[(2R,5R)-2,4,5-trimethylpiperazin-1-yl]benzoyl]-2,4-dihydro-1,3-benzoxazin-8-yl]-5-fluoro-2-(3-oxa-8-azabicyclo[3.2.1]octan-8-yl)benzoic acid], which EC50 ([1]; HepG2 cells transfected with pARE-Luc, 4 hours at 37° C., luciferase activity of Example 1-54 or Example 17-23 at 3.75 μM defined as 100%, second printing of Table 20-1) is on record?
A: Its EC50 is 2.3 nM.

Q: And the fold induction at 30 mg/kg [2, 4]?
A: The fold induction at 30 mg/kg was 2.9.

Q: And the fold induction at 30 mg/kg [2, 5]?
A: The fold induction at 30 mg/kg was 4.9.

Q: What about the fold induction at 30 mg/kg [2, 6] of the same compound?
A: The fold induction at 30 mg/kg was 3.6.

Q: `N#CC1(F)CN(c2cc(Cl)c(C(=O)N3COc4c(cccc4-c4cc(N5C6CCC5COC6)c(C(=O)O)cc4F)C3)c(Cl)c2)C1` [Compound 16-16, 4-[3-[2,6-Dichloro-4-(3-cyano-3-fluoroazetidin-1-yl)benzoyl]-2,4-dihydro-1,3-benzoxazin-8-yl]-5-fluoro-2-(3-oxa-8-azabicyclo[3.2.1]octan-8-yl)benzoic acid] was tested. Which EC50 [1, 3] did it give?
A: Its EC50 is 13 nM.

Q: With `O=C(O)c1cc(F)c(-c2cccc3c2OCN(C(=O)c2c(Cl)cc(N4CC5(C4)CC(F)(F)C5)cc2Cl)C3)cc1N1C2CCC1COC2` [Compound 16-7, 4-[3-[2,6-Dichloro-4-(6,6-difluoro-2-azaspiro[3.3]heptan-2-yl)benzoyl]-2,4-dihydro-1,3-benzoxazin-8-yl]-5-fluoro-2-(3-oxa-8-azabicyclo[3.2.1]octan-8-yl)benzoic acid] as the compound, how does the EC50 [1, 3] read?
A: Its EC50 is 1.4 nM.

Q: With `O=C(O)c1cc(F)c(-c2cccc3c2OCN(C(=O)c2c(Cl)cc(N4CC5CCC(C4)O5)cc2Cl)C3)cc1N1C2CCC1COC2` [Compound 1-37, 4-[3-[2,6-Dichloro-4-(8-oxa-3-azabicyclo[3.2.1]octan-3-yl)benzoyl]-2,4-dihydro-1,3-benzoxazin-8-yl]-5-fluoro-2-(3-oxa-8-azabicyclo[3.2.1]octan-8-yl)benzoic acid] as the compound, how does the EC50 [1, 3] read?
A: Its EC50 is 2.1 nM.

Q: With `O=C(O)c1cc(F)c(-c2cccc3c2OCN(C(=O)c2c(Cl)cc(N4C5CCCC4COC5)cc2Cl)C3)cc1N1C2CCC1COC2` [Compound 1-43, 4-[3-[2,6-Dichloro-4-(3-oxa-9-azabicyclo[3.3.1]nonan-9-yl)benzoyl]-2,4-dihydro-1,3-benzoxazin-8-yl]-5-fluoro-2-(3-oxa-8-azabicyclo[3.2.1]octan-8-yl)benzoic acid] as the compound, how does the EC50 [1, 3] read?
A: The EC50 was 1.8 nM.

Q: For `O=C(O)c1cc(F)c(-c2cccc3c2OCN(C(=O)c2c(Cl)cc(N4CC5(C4)OCC4(CC4)CO5)cc2Cl)C3)cc1N1C2CCC1COC2` [Compound 5-5, 4-[3-[2,6-Dichloro-4-(5,10-dioxa-8-azaspiro[2.2.36.23]undecan-8-yl)benzoyl]-2,4-dihydro-1,3-benzoxazin-8-yl]-5-fluoro-2-(3-oxa-8-azabicyclo[3.2.1]octan-8-yl)benzoic acid], which EC50 [1, 3] is on record?
A: Its EC50 is 1 nM.

Q: Which EC50 [1, 3] does the source give for `Cn1cc(-c2cc(Cl)c(C(=O)N3CNc4c(cccc4-c4ccc(C(=O)O)c(N5CCOCC5)c4)C3)c(Cl)c2)cn1` [Compound 14-5, 4-[3-[2,6-Dichloro-4-(1-methylpyrazol-4-yl)benzoyl]-2,4-dihydro-1H-quinazolin-8-yl]-2-morpholin-4-ylbenzoic acid] here?
A: The EC50 was 3.1 nM.

Q: For `CC[C@@H](c1cccc2c1CON(C(=O)c1c(Cl)cc(-c3cnn(C)c3)cc1Cl)C2)[C@H](C)C(=O)O` [Compound 17-2, (2S,3R)-3-[3-[2,6-Dichloro-4-(1-methylpyrazol-4-yl)benzoyl]-1,4-dihydro-2,3-benzoxazin-8-yl]-2-methylpentanoic acid], which EC50 [1, 3] is on record?
A: Its EC50 is 7.7 nM.

Q: With `C[C@@H]1CN(C)CCN1c1cc(F)c(C(=O)N2COc3c(cccc3-c3cc(N4C5CCC4COC5)c(C(=O)O)cc3F)C2)c(Cl)c1` [Compound 19-7, 4-[3-[2-Chloro-4-[(2R)-2,4-dimethylpiperazin-1-yl]-6-fluorobenzoyl]-2,4-dihydro-1,3-benzoxazin-8-yl]-5-fluoro-2-(3-oxa-8-azabicyclo[3.2.1]octan-8-yl)benzoic acid] as the compound, how does the EC50 [1, 3] read?
A: Its EC50 is 2.3 nM.

Q: For `CO[C@H]1C[C@@]2(CN(c3cc(Cl)c(C(=O)N4COc5c(cccc5-c5cc(N6C7CCC6COC7)c(C(=O)O)cc5F)C4)c(Cl)c3)[C@H]2C)C1` [Compound 1-25, 4-[3-[2,6-Dichloro-4-[(1S,4r,6S)-6-methoxy-1-methyl-2-azaspiro[3.3]heptan-2-yl]benzoyl]-2,4-dihydro-1,3-benzoxazin-8-yl]-5-fluoro-2-(3-oxa-8-azabicyclo[3.2.1]octan-8-yl)benzoic acid], which EC50 [1, 3] is on record?
A: The EC50 was 1.5 nM.

Q: `COc1cc(-c2cc(Cl)c(C(=O)N3COc4c(cccc4-c4cc(N5C6CCC5COC6)c(C(=O)O)cc4F)C3)c(Cl)c2)ccn1` [Compound 2-1, 4-[3-[2,6-Dichloro-4-(2-methoxypyridin-4-yl)benzoyl]-2,4-dihydro-1,3-benzoxazin-8-yl]-5-fluoro-2-(3-oxa-8-azabicyclo[3.2.1]octan-8-yl)benzoic acid] was tested. Which EC50 [1, 3] did it give?
A: The EC50 was 6.2 nM.

Q: With `COCCN1CCC(c2cc(Cl)c(C(=O)N3COc4c(cccc4-c4cc(N5CCOCC5)c(C(=O)O)cc4F)C3)c(Cl)c2)CC1` [Compound 16-11, 4-[3-[2,6-Dichloro-4-[1-(2-methoxyethyl)piperidin-4-yl]benzoyl]-2,4-dihydro-1,3-benzoxazin-8-yl]-5-fluoro-2-morpholin-4-ylbenzoic acid] as the compound, how does the EC50 [1, 3] read?
A: Its EC50 is 7.5 nM.

Q: With `O=C(O)c1cc(F)c(-c2cccc3c2OCN(C(=O)c2c(Cl)cc(-c4cccc5ccoc45)cc2Cl)C3)cc1N1C2CCC1COC2` [Compound 3-24, 4-[3-[4-(1-Benzofuran-7-yl)-2,6-dichlorobenzoyl]-2,4-dihydro-1,3-benzoxazin-8-yl]-5-fluoro-2-(3-oxa-8-azabicyclo[3.2.1]octan-8-yl)benzoic acid] as the compound, how does the EC50 [1, 3] read?
A: The EC50 was 31 nM.

Q: `CC(C)(O)CN1CCN(c2cc(Cl)c(C(=O)N3COc4c(cccc4-c4ccc(C(=O)O)c(N5CCOCC5)c4)C3)c(Cl)c2)CC1` [Compound 1-62, 4-[3-[2,6-Dichloro-4-[4-(2-hydroxy-2-methylpropyl)piperazin-1-yl)benzoyl]-2,4-dihydro-1,3-benzoxazin-8-yl]-2-morpholin-4-ylbenzoic acid] was tested. Which EC50 [1, 3] did it give?
A: Its EC50 is 3.2 nM.

Q: For `CC(C)N1CCC(Oc2cc(Cl)c(C(=O)N3COc4c(cccc4-c4ccc(C(=O)O)c(N5CCOCC5)c4)C3)c(Cl)c2)CC1` [Compound 10-13, 4-[3-[2,6-Dichloro-4-(1-propan-2-ylpiperidin-4-yl)oxybenzoyl]-2,4-dihydro-1,3-benzoxazin-8-yl]-2-morpholin-4-ylbenzoic acid], which EC50 [1, 3] is on record?
A: The EC50 was 4.2 nM.

Q: How did the EC50 [1, 3] turn out when `Cn1nc2c(N3CC4(C3)OCC(C)(C)CO4)cc(Cl)c(C(=O)N3COc4c(cccc4-c4cc(N5C6CCC5COC6)c(C(=O)O)cc4F)C3)c2n1` [Compound 19-13, 4-[3-[5-Chloro-7-(7,7-dimethyl-5,9-dioxa-2-azaspiro[3.5]nonan-2-yl)-2-methylbenzotriazole-4-carbonyl]-2,4-dihydro-1,3-benzoxazin-8-yl]-5-fluoro-2-(3-oxa-8-azabicyclo[3.2.1]octan-8-yl)benzoic acid] was run?
A: Its EC50 is 2.1 nM.
